Measurements taken from the supplement of paper PMC10307832.

Legend:
Assay in all cases: relative viability (nuclei count vs DMSO), 5 days (fraction); higher = more cells survive
[1] = compound: CC1=C(CC(=O)O)c2cc(F)ccc2/C1=C\c1ccc([S+](C)[O-])cc1 [Sulindac] + O=C(c1cc(Cc2n[nH]c(=O)c3ccccc23)ccc1F)N1CCN(C(=O)C2CC2)CC1 [Olaparib] (partner 8 µM)
Method in brief: (§1)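 The day after seeding in 1536-well plates, lung cancer cell lines were treated by pin tool with a single drug, or with a fixed anchor-drug dose together with five library-drug doses (not always all listed) in √10 steps. After 5 days, a combined fix-and-stain solution (final 0.05% Triton X-100, 1% formaldehyde, 1 ug/ml Hoechst) was added. Nuclei counted on 4× images gave relative viability as treated counts over vehicle counts, reported as the median of duplicate plates.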

[2] = compound: CC1=C(CC(=O)O)c2cc(F)ccc2/C1=C\c1ccc([S+](C)[O-])cc1 [Sulindac] + Cc1nc(NC(=O)N2CCC[C@H]2C(N)=O)sc1-c1ccnc(C(C)(C)C(F)(F)F)c1 [Alpelisib] (partner 2 µM)
Method in brief: as §1

[3] = compound: CN[C@@H]1C[C@H]2O[C@@](C)([C@@H]1OC)n1c3ccccc3c3c4c(c5c6ccccc6n2c5c31)C(=O)NC4 [Staurosporine] + CC(=O)Nc1cccc(-n2c(=O)n(C3CC3)c(=O)c3c(Nc4ccc(I)cc4F)n(C)c(=O)c(C)c32)c1 [Trametinib] (partner 0.02 µM)
Method in brief: as §1

[4] = compound: CN[C@@H]1C[C@H]2O[C@@](C)([C@@H]1OC)n1c3ccccc3c3c4c(c5c6ccccc6n2c5c31)C(=O)NC4 [Staurosporine] + CS(=O)(=O)CCNCc1ccc(-c2ccc3ncnc(Nc4ccc(OCc5cccc(F)c5)c(Cl)c4)c3c2)o1 [Lapatinib] (partner 2 µM)
Method in brief: as §1

| Cell Line | relative viability ([1]; first compound 0.08 µM) | relative viability ([1]; first compound 0.253 µM) | relative viability ([1]; first compound 0.8 µM) | relative viability ([1]; first compound 2.53 µM) | relative viability ([1]; first compound 8 µM) | relative viability ([2]; first compound 0.08 µM) | relative viability ([2]; first compound 0.253 µM) | relative viability ([2]; first compound 0.8 µM) | relative viability ([2]; first compound 2.53 µM) | relative viability ([2]; first compound 8 µM) | relative viability ([3]; first compound 0.005 µM) | relative viability ([3]; first compound 0.01581 µM) | relative viability ([3]; first compound 0.05 µM) | relative viability ([3]; first compound 0.1581 µM) | relative viability ([3]; first compound 0.5 µM) | relative viability ([4]; first compound 0.005 µM) | relative viability ([4]; first compound 0.01581 µM) | relative viability ([4]; first compound 0.05 µM) | relative viability ([4]; first compound 0.1581 µM) | relative viability ([4]; first compound 0.5 µM) |
| --- | --- | --- | --- | --- | --- | --- | --- | --- | --- | --- | --- | --- | --- | --- | --- | --- | --- | --- | --- | --- |
| HCC-78 | 0.972 | 0.812 | 0.763 | 0.784 | 0.686 | 0.353 | 0.387 | 0.352 | 0.27 | 0.374 | 0.806 | 0.676 | 0.484 | 0.407 | 0.428 | 0.238 | 0.22 | 0.38 | 0.263 | 0.232 |
| HCC-366 | 0.338 | 0.356 | – | 0.399 | 0.508 | 0.527 | 0.471 | 0.407 | 0.527 | 0.622 | 0.242 | – | 0.0839 | 0.0291 | 0.0289 | 1.22 | – | 0.278 | 0.0407 | 0.0187 |
| HCC-827 | 0.636 | 0.683 | 0.573 | 0.659 | 0.734 | 0.985 | 0.979 | 0.839 | 0.943 | 1.11 | 0.625 | 0.641 | 0.357 | 0.313 | 0.231 | 0.223 | 0.186 | 0.182 | 0.125 | 0.163 |
| HOP-62 | 0.3 | 0.677 | 0.351 | 0.266 | 0.545 | 1.15 | 0.994 | 0.842 | 0.963 | 1.21 | 0.359 | 0.196 | 0.184 | 0.141 | 0.102 | 1.27 | 0.293 | 0.103 | 0.0855 | 0.0849 |
| IA-LM | 0.932 | 0.925 | – | 0.953 | 0.881 | 0.825 | 0.955 | – | 0.977 | 1.13 | – | – | – | – | – | 0.194 | 0.194 | 0.158 | 0.208 | 0.074 |
| LC-2-ad | 0.746 | 0.677 | 0.676 | 0.686 | 0.66 | 0.886 | 0.913 | 0.86 | 0.917 | 0.974 | 0.945 | 0.732 | 0.559 | 0.165 | 0.122 | 0.957 | 0.127 | 0.47 | 0.0776 | 0.0569 |
| LCLC-97TM1 | 0.481 | 0.531 | 0.473 | 0.308 | 0.606 | 0.272 | 0.278 | 0.238 | – | 0.236 | 0.168 | 0.115 | 0.103 | 0.0977 | 0.0977 | 0.864 | 0.168 | 0.285 | 0.174 | 0.381 |
| LCLC-103H | 0.856 | 0.757 | 0.695 | 0.798 | 0.82 | 1.06 | 1.07 | 0.892 | 0.869 | 1.09 | 0.685 | 0.472 | 0.445 | 0.331 | 0.332 | – | – | – | – | – |
| LK-2 | 0.766 | 0.998 | 0.514 | 0.592 | 0.808 | 1.42 | 1.14 | – | – | 1.38 | 0.906 | 0.781 | 0.701 | 0.669 | 0.333 | 1.31 | 0.924 | – | 0.346 | 0.178 |
| LOU-NH91 | 0.955 | 0.961 | 0.84 | 0.893 | 1.01 | 0.711 | 0.7 | 0.636 | 0.745 | 0.808 | 0.673 | 0.493 | 0.511 | 0.341 | 0.303 | 0.861 | 0.582 | 0.539 | 0.275 | 0.292 |
| LU99A | 0.294 | 0.231 | 0.259 | 0.241 | 0.311 | 0.468 | 0.564 | 0.455 | 0.498 | 0.596 | 0.461 | 0.243 | 0.23 | 0.182 | 0.133 | 0.669 | 0.313 | 0.282 | 0.171 | 0.133 |
| NCI-H441 | 0.514 | 0.537 | 0.442 | 0.476 | 0.624 | 0.724 | 0.713 | 0.642 | 0.888 | 0.917 | 0.373 | 0.186 | 0.168 | 0.133 | 0.0933 | – | – | – | – | – |
| NCI-H522 | 0.694 | 0.735 | 0.558 | 0.633 | 0.61 | – | – | – | – | – | 0.667 | 0.775 | 0.627 | 0.623 | 0.59 | – | – | – | – | – |
| NCI-H1299 | 0.98 | 1.04 | 0.889 | 0.962 | 1.03 | 1.23 | 1.19 | 0.624 | 1.2 | 1.08 | – | – | – | – | – | 0.985 | 0.414 | 0.326 | 0.201 | 0.171 |
| NCI-H1563 | – | – | – | – | – | 0.915 | 0.853 | 0.86 | 0.884 | 0.923 | – | – | – | – | – | 0.71 | 0.541 | 0.594 | 0.539 | 0.472 |
| NCI-H1648 | 1.38 | 0.827 | – | 0.997 | 0.695 | – | – | – | – | – | 0.586 | 0.299 | 0.0693 | 0.25 | 0.265 | – | – | – | – | – |
| NCI-H1650 | 0.827 | 0.723 | 0.705 | 0.742 | 0.757 | – | – | – | – | – | 0.501 | 0.364 | 0.187 | 0.112 | 0.0438 | 0.575 | 0.165 | 0.336 | 0.151 | 0.117 |
| NCI-H1703 | 0.39 | 0.526 | 0.404 | 0.529 | 0.554 | 0.37 | 0.346 | 0.301 | 0.461 | 0.341 | – | – | – | – | – | 0.45 | 0.313 | 0.245 | 0.172 | 0.151 |
| NCI-H2342 | 0.353 | 0.368 | 0.414 | 0.415 | 0.451 | – | – | – | – | – | 0.948 | 0.675 | 0.499 | 0.417 | 0.363 | – | – | – | – | – |
| SW 900 | 0.968 | 0.965 | – | – | 1.06 | – | – | – | – | – | 0.494 | 0.366 | 0.444 | 0.128 | 0.164 | – | – | – | – | – |
